Results taken from patent US20240042019A1, “OPTIMIZED TLR7 LIGANDS AND USES THEREOF” (Genentech, Inc., priority 2021, published 2024).
Read-outs that look alike come from different tables or passages of the source. Oligonucleotides are written 5' to 3', each unit as a sugar letter and its base; * is a phosphorothioate linkage, no mark a phosphodiester; rarer units and linkages stand in square brackets, end groups in braces. Plain capitals give the bases only. m = 2'-O-methyl; r = 2'-OH (RNA); f = 2'-fluoro

How the values were obtained:
Format in all cases: cell-based
[1] = biological target: T1, TLR8 (Homo sapiens, UniProt Q9NR97); experiment: PBMC stimulation with DOTAP-complexed RNA ligands, TNF-α ELISA
T1 construct: Peripheral blood mononuclear cells (PBMCs) were obtained from buffy coats from healthy adult donors; endogenous in cells; host or cells: primary human PBMCs from healthy donor buffy coats (TLR8 in monocytes)
T1 sequence (Q9NR97 27-1041): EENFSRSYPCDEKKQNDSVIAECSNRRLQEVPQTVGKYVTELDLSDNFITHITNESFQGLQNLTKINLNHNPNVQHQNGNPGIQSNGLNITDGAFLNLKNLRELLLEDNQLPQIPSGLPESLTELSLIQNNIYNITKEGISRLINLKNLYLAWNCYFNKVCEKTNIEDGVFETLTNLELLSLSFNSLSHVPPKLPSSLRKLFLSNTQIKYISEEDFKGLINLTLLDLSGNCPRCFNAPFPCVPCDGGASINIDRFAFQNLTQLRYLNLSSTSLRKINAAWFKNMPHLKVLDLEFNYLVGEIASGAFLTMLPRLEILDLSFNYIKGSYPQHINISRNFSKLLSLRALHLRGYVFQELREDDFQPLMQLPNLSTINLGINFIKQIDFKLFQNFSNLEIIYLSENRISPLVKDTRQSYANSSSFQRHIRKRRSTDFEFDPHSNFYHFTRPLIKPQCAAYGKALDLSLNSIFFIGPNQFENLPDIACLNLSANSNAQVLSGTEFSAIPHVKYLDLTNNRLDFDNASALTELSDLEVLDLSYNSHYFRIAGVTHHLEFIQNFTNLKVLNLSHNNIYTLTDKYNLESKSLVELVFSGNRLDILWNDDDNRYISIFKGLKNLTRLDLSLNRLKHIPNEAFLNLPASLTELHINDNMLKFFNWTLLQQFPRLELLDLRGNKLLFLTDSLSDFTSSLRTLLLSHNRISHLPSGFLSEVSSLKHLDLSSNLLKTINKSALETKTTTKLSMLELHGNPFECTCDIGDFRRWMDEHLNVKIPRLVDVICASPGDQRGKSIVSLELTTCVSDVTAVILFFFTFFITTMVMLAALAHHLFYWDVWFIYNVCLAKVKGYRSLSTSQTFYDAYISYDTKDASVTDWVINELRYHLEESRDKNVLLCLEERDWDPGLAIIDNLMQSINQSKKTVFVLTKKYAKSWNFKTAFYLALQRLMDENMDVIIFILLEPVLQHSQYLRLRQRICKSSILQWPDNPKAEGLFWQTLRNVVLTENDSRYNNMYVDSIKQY

[2] = biological target: T2, TLR7 (Homo sapiens, UniProt Q9NYK1); experiment: PBMC stimulation with DOTAP-complexed RNA ligands, IFN-α ELISA
T2 construct: Peripheral blood mononuclear cells (PBMCs) were obtained from buffy coats from healthy adult donors; endogenous in cells; host or cells: primary human PBMCs from healthy donor buffy coats (TLR7 expressed by pDCs)
T2 sequence (Q9NYK1 27-1049): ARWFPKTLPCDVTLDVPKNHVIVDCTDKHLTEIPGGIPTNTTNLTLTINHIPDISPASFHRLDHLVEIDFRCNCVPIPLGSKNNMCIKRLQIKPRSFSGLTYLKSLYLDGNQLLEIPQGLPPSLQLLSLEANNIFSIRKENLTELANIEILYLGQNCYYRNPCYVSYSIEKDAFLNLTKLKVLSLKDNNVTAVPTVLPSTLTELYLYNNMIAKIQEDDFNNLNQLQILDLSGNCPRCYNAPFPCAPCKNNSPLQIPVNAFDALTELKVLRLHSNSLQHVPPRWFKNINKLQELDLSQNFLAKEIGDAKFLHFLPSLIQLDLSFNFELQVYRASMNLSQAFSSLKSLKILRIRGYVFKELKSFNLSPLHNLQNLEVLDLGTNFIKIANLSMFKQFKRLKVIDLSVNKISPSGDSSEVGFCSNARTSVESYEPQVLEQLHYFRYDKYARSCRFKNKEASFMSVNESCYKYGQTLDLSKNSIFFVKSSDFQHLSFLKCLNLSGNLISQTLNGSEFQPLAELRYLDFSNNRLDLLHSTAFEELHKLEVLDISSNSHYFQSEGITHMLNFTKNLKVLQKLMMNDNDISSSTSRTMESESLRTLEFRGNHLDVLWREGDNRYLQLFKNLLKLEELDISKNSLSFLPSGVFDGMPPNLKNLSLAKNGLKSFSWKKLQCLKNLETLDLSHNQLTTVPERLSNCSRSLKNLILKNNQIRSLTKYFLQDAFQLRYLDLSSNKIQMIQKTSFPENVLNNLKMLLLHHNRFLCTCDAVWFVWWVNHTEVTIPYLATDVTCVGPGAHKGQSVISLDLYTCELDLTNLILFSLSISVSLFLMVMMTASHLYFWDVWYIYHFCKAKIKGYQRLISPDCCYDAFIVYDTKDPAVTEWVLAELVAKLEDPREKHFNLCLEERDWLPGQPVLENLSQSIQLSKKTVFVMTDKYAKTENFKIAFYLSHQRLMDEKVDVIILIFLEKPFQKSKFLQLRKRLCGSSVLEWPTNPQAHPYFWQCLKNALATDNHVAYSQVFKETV

[3] = biological target: T1, TLR8; experiment: PBMC stimulation with p-L-arginine-complexed RNA ligands, TNF-α ELISA; conditions: human PBMCs, p-L-arginine complexes with 2′3′ cyclic GMP 5 μg/ml, ORN 0.6 μg/ml (FIG. 12)
Experimental: (§1) Peripheral blood mononuclear cells (PBMCs) were obtained from buffy coats from healthy adult donors. Buffy coat samples were first diluted with an equal volume of phosphate-buffered saline (PBS). Next, PBMCs were isolated via density gradient centrifugation with Lymphoprep density gradient media ([…] Technologies) and SepMate-50 tubes ([…] Technologies). Samples were centrifuged at 1000 g for 15 minutes. After centrifugation, the upper layers were collected by pouring into a new tube, diluted with PBS, and centrifuged at 450×g for 5 minutes. To lyse red blood cells, cell pellets were resuspended with 10 mL Ammonium-Chloride-Potassium (ACK) Lysis Buffer and incubated for 8 minutes at room temperature. After lysis, cells were washed with PBS and passed through two 70 μm cell strainers. Viable cell counts were determined with a Vi-CELL cell counter (Beckman Coulter). […] Guanosine was added between about 20 and about 30 minutes before the addition of poly-[…])-complexed RNA. […] After mixing by pipetting up and down, the reaction was incubated for 10 minutes, pipetted up and down again, and then added to the cells. In some experiments, RNA ligands were used at a final concentration of 0.6 μg/ml. Where indicated as “+2'3' cGMP”, 2'3' cyclic GMP purchased from eMolecules was complexed together with the RNA ligands. The final concentration of 2'3' cyclic GMP was 5 μg/ml. p-L-arginine was adjusted accordingly to keep the mass ratio of nucleic acid:p-L-arginine constant. Cell culture supernatants were collected 15-18 hours after stimulation and stored at -80° C. Cytokines in cell culture supernatants were detected with the BD OptEIA human TNF ELISA Set (BD Biosciences), and either Invitrogen IFN alpha Human Matched Antibody Pair kit (Thermo Fisher Scientific) or Human IFN Alpha Multi-Subtype ELISA Kit (PBL Assay Science). To test the effects of the RNA ligands described in Example 1 on TLR7 and TLR8 activation, PBMCs were stimulated with the RNA ligands using p-L-arginine complex delivery, delivery with DOTAP, or delivery without a carrier. Activity of TLR7 and TLR8 was assessed based on measurements of IFN-α or TNF-α by enzyme-linked immunosorbent assays (ELISA). In this setting, as depicted in FIG. 6, IFN-α induced by small RNAs is derived from TLR7 expressed by pDCs, or from RIG-I expressed by monocytes. In contrast, TNF-α secretion is derived from monocytes and serves as an indication of TLR8 activation. As shown in this figure, the p-L-arginine delivery restricts most of the activation to TLRs. First, the effects of the RNA ligands on TLR7 and TLR8 activation using p-L-arginine complex delivery were tested.

[4] = biological target: T2, TLR7; experiment: PBMC stimulation with p-L-arginine-complexed RNA ligands, IFN-α ELISA; conditions: human PBMCs; for IFN-α secretion when co-delivered with 2′3′ cGMP: p-L-arginine complexes with 2′3′ cyclic GMP 5 μg/ml, ORN 0.6 μg/ml (FIG. 12); for IFN-α secretion (TLR7 activity): p-L-arginine delivery, 16 hours, ELISA (FIG. 7)
Experimental: as §1

[5] = human PBMCs, DOTAP delivery, 0.6 μg/ml and 2 μg/ml, 16 hours (FIGS. 10A-10B)
[6] = human PBMCs, DOTAP delivery, 2 μg/ml (FIG. 10B)

| Substance | TNF-α secretion (TLR8 activity) [1, 5] | IFN-α secretion (TLR7 activity) [2, 5] | TNF-α secretion when co-delivered with 2′3′ cyclic GMP [3] | IFN-α secretion when co-delivered with 2′3′ cGMP [4] | IFN-α secretion (TLR7 activity) [4] | other results |
| --- | --- | --- | --- | --- | --- | --- |
| U-fC-U-fC-U-fC-U-fC-U-fC-U-fC-U-fC-U-fC-U-fC-U-C (rUfCrUfCrUfCrUfCrUfCrUfCrUfCrUfCrUfCrUrC) [ORN7007, 2′-fluoro-modified version of ORN7005] | also reduced activity | also reduced activity | little to no measurable TNF-α | robust IFN-a induction |  |  |
| UCUCUCUCUCUCUCUCUCUC (UCUCUCUCUCUCUCUCUCUC; unmodified RNA) [ORN7005, derived from pU1C of Zhang et al., 2018, reference compound] | activated TLR8 | activated TLR8 rather than TLR7 |  |  | no or only minor IFN-α secretion | IFN-α response to RNA ligand alone (no 2′3′ cGMP) ([4]; p-L-arginine alone, ORN 0.6 μg/ml, one donor (FIGS. 12, 16A-16B)): unexpectedly high IFN-α response |
| C-A-G-A-C-C*U*U*C-C-A-G-A-C-C*U*U*C (CAGACCUUCCAGACCUUC; linkages o5 s3 o6 s3 (s phosphorothioate, o phosphodiester), sugars by position not given here) [ORN7004] |  |  |  |  |  | TNF-α secretion (TLR8 activity) [1]: markedly increased TLR8 activity; IFN-α secretion (TLR7 activity) [2]: mildly increased TLR7 activity |
| C*G*G*C*U*C*G*G*C*A*G*A*A*G*C*C*G*G*G*C*C (rC*rG*rG*rC*rU*rC*rG*rG*rC*rA*rG*rA*rA*rG*rC*rC*rG*rG*rG*rC*rC) [ORN7024] |  |  |  |  | reduced activity |  |
| C-A-G-A-C-C-U-U-C-C-A-G-A-C-C-U-U-C (CAGACCUUCCAGACCUUC; unmodified RNA) [ORN7001, de novo designed ligand] | induced TLR7 and TLR8 activity | induced TLR7 and TLR8 activity |  |  | no or only minor IFN-α secretion |  |
| U*C*U*C*U*C*U*C*U*C*U*C*U*C*U*C*U*C*U*C (rU*rC*rU*rC*rU*rC*rU*rC*rU*rC*rU*rC*rU*rC*rU*rC*rU*rC*rU*rC) [ORN7008] | further increased TLR8 activation |  |  |  |  |  |
| C-C-fU-U-C-fU-U-C-fU-U-C-fU-U-C-fU-U-C-fU-U-C (rCrCfUrUrCfUrUrCfUrUrCfUrUrCfUrUrCfUrUrC) [ORN7011, 2′-fluoro-modified version of ORN7009] |  |  | little to no measurable TNF-α | robust IFN-a induction |  | TNF-α secretion (TLR8 activity) [1, 6]: without TLR8 activity; IFN-α secretion (TLR7 activity) [2, 6]: had TLR7-activity |
| C-C-mU-U-C-mU-U-C-mU-U-C-mU-U-C-mU-U-C-mU-U-C (rCrCmUrUrCmUrUrCmUrUrCmUrUrCmUrUrCmUrUrC) [ORN7010, 2′O-methyl-modified version of ORN7009] | reduced both TLR8 and TLR7 activation | reduced both TLR8 and TLR7 activation | little to no measurable TNF-α | robust IFN-a induction |  |  |
| U-mC-U-mC-U-mC-U-mC-U-mC-U-mC-U-mC-U-mC-U-mC-U-C (rUmCrUmCrUmCrUmCrUmCrUmCrUmCrUmCrUmCrUrC) [ORN7006, 2′O-methyl-modified version of ORN7005] | reduced both TLR8 and TLR7 activation | reduced both TLR8 and TLR7 activation | little to no measurable TNF-α | robust IFN-a induction |  |  |
| C-C-G-A-G-C-C-G-C*U*U*U*U*C-C-C (rCrCrGrArGrCrCrGrC*rU*rU*rU*rU*rCrCrC) [ORN7022, phosphodiester-linked version of ORN7013] | activated both TLR7 and TLR8 | activated both TLR7 and TLR8 |  |  |  |  |
| C-G-G-fC-U-C-G-G-C-A-G-A-A-G-C-C-G-G-G-C-C (rCrGrGfCrUrCrGrGrCrArGrArArGrCrCrGrGrGrCrC; hairpin) [ORN7023F, 2′-fluoro-C-modified ORN7023] |  |  |  |  | further increasing the activity | TLR7 selectivity (IFN-α versus TNF-α secretion) ([4]; p-L-arginine delivery (FIG. 7)): maintained TLR7 selectivity |
| C-C-G-A-G-C-C-G-C-fU-U*fU-U*C-C-C (rCrCrGrArGrCrCrGrCfUrU*fUrU*rCrCrC) [ORN7019, 2′-fluoro-modified and phosphodiester-linked version of ORN7013] |  |  |  |  |  | TNF-α secretion (TLR8 activity) [1, 6]: also had TLR8-activity; IFN-α secretion (TLR7 activity) ([2]; human PBMCs, DOTAP delivery, 0.6 μg/ml (FIG. 10A)): selective TLR7 activation |
